Bridge positions count the residues as written; N and C are the ends. Peptide text beside a SMILES is read from it.
Test system: Escherichia coli W3110
Assay type: cell-based
Details: for Ec W3110 MIC MH: E. coli W3110, MH medium; for Ec W3110 MIC RPMI: E. coli W3110, RPMI medium

Ec W3110 MIC MH [µg/mL]	Ec W3110 MIC RPMI [µg/mL]	W3110 MIC MH [µg/mL]	W3110 MIC RPMI [µg/mL]	W3110 MIC [µg/mL]	Compound
256	256	256	256		CC[C@H](C)[C@@H]1NC(=O)[C@H](CCCCN)NC(=O)[C@H]([C@@H](C)CC)NC(=O)[C@H](CCCNC(=N)N)NC(=O)[C@@H](N)CSSC[C@@H](C(=O)O)NC(=O)[C@H](CCC(N)=O)NC(=O)[C@H](C(C)C)NC(=O)[C@H](CCC(N)=O)NC(=O)[C@H](CC(C)C)NC(=O)[C@H](CCCCN)NC(=O)[C@H](CC(C)C)NC(=O)[C@H](CCCNC(=N)N)NC(=O)[C@H](CCCNC(=N)N)NC(=O)[C@H](CO)NC(=O)CNC(=O)[C@H](CC(=O)O)NC(=O)[C@H](CC(N)=O)NC(=O)[C@H](C(C)C)NC(=O)[C@H](CC(N)=O)NC1=O [SySA-8] (H-CRIKINVNDGSRRLKLQVQC-OH; disulfide 1-20; N-terminus and C-terminus assumed)
64	16	64	16		CC[C@H](C)[C@@H]1NC(=O)[C@H](CCCCN)NC(=O)[C@H](C(C)C)NC(=O)[C@H](CCCNC(=N)N)NC(=O)[C@H](CCCNC(=N)N)NC(=O)[C@H](CCCNC(=N)N)NC(=O)[C@H](CCCNC(=N)N)NC(=O)[C@H](CC(N)=O)NC(=O)[C@H](CC(N)=O)NC(=O)[C@H](CC(C)C)NC(=O)[C@H](CCCNC(=N)N)NC(=O)[C@H](C(C)C)NC(=O)[C@H](CCCNC(=N)N)NC(=O)[C@H](C(C)C)NC(=O)[C@@H](N)CSSC[C@@H](C(=O)O)NC(=O)[C@H](C(C)C)NC(=O)[C@H](CCC(=O)O)NC(=O)[C@H](C(C)C)NC(=O)[C@H](CO)NC1=O [SySA-65] (H-CVRVRLNNRRRRVKISVEVC-OH; disulfide 1-20; N-terminus and C-terminus assumed)
256	32	256	32		CC[C@H](C)[C@@H]1NC(=O)[C@H](CC(N)=O)NC(=O)[C@H]([C@@H](C)CC)NC(=O)[C@H](CCCNC(=N)N)NC(=O)[C@H](C(C)C)NC(=O)[C@H](CCCNC(=N)N)NC(=O)[C@@H](N)CSSC[C@@H](C(=O)O)NC(=O)[C@H](CCC(N)=O)NC(=O)[C@H](CC(C)C)NC(=O)[C@H](CCC(N)=O)NC(=O)[C@H](CC(C)C)NC(=O)[C@H](CCCCN)NC(=O)[C@H](C(C)C)NC(=O)[C@H](CCCNC(=N)N)NC(=O)[C@H](CCCNC(=N)N)NC(=O)[C@H](CCCNC(=N)N)NC(=O)CNC(=O)[C@H](CC(N)=O)NC(=O)[C@H](CC(N)=O)NC1=O [SySA-7] (H-CRVRININNGRRRVKLQLQC-OH; disulfide 1-20; N-terminus and C-terminus assumed)
				>256	CC(C)C[C@@H]1NC(=O)[C@H](CCC(=O)O)NC(=O)[C@H](CC(C)C)NC(=O)[C@H](CCCCN)NC(=O)[C@H](CC(C)C)NC(=O)[C@H](CCCNC(=N)N)NC(=O)[C@H](CCCNC(=N)N)NC(=O)CNC(=O)[C@H](CCCNC(=N)N)NC(=O)[C@H](CC(=O)O)NC(=O)[C@H](CC(=O)O)NC(=O)[C@H](C(C)C)NC(=O)[C@H](CC(N)=O)NC(=O)[C@H](C(C)C)NC(=O)[C@H](CCCCN)NC(=O)[C@H](C(C)C)NC(=O)[C@H](CCCNC(=N)N)NC(=O)[C@@H](N)CSSC[C@@H](C(=O)O)NC(=O)[C@H](CCC(N)=O)NC1=O [SyRC-15] (H-CRVKVNVDDRGRRLKLELQC-OH; disulfide 1-20)
32	8	32	8		CC[C@H](C)[C@@H]1NC(=O)[C@H](CCCNC(=N)N)NC(=O)[C@H](CC(C)C)NC(=O)CNC(=O)[C@H](CCCNC(=N)N)NC(=O)[C@H](CCCNC(=N)N)NC(=O)[C@H](CCCNC(=N)N)NC(=O)[C@H](CC(N)=O)NC(=O)[C@H](CC(N)=O)NC(=O)[C@H](CC(C)C)NC(=O)[C@H](CCCNC(=N)N)NC(=O)[C@H]([C@@H](C)CC)NC(=O)[C@H](CCCNC(=N)N)NC(=O)[C@H](CC(C)C)NC(=O)[C@@H](N)CSSC[C@@H](C(=O)O)NC(=O)[C@H](C(C)C)NC(=O)[C@H](CCC(N)=O)NC(=O)[C@H](CC(C)C)NC(=O)[C@H](CO)NC1=O [SySA-72] (H-CLRIRLNNRRRGLRISLQVC-OH; disulfide 1-20; N-terminus and C-terminus assumed)
256	64	256	64		CC[C@H](C)[C@@H]1NC(=O)[C@H](CCCNC(=N)N)NC(=O)[C@H](C(C)C)NC(=O)[C@H](CCCNC(=N)N)NC(=O)[C@H](CO)NC(=O)[C@H](CCCNC(=N)N)NC(=O)[C@H](CCCNC(=N)N)NC(=O)[C@H](CC(N)=O)NC(=O)[C@H](CC(N)=O)NC(=O)[C@H](C(C)C)NC(=O)[C@H](CCCNC(=N)N)NC(=O)[C@H]([C@@H](C)CC)NC(=O)[C@H]([C@@H](C)O)NC(=O)[C@H](C(C)C)NC(=O)[C@@H](N)CSSC[C@@H](C(=O)O)NC(=O)[C@H](C(C)C)NC(=O)[C@H](CCC(N)=O)NC(=O)[C@H](CC(C)C)NC(=O)[C@H](CO)NC1=O [SySA-63] (H-CVTIRVNNRRSRVRISLQVC-OH; disulfide 1-20; N-terminus and C-terminus assumed)

Further lines, the molecule ahead of its results:

Compound	Ec W3110 MIC MH [µg/mL]	Ec W3110 MIC RPMI [µg/mL]	W3110 MIC MH [µg/mL]	W3110 MIC RPMI [µg/mL]	W3110 MIC [µg/mL]
CC[C@H](C)[C@@H]1NC(=O)[C@H](CC(=O)O)NC(=O)[C@H]([C@@H](C)CC)NC(=O)[C@H](CCCNC(=N)N)NC(=O)[C@H](C(C)C)NC(=O)[C@H](CCCNC(=N)N)NC(=O)[C@@H](N)CSSC[C@@H](C(=O)O)NC(=O)[C@H](CCC(N)=O)NC(=O)[C@H](CC(C)C)NC(=O)[C@H](CCC(N)=O)NC(=O)[C@H](CC(C)C)NC(=O)[C@H](CCCCN)NC(=O)[C@H](CC(C)C)NC(=O)[C@H](CCCNC(=N)N)NC(=O)[C@H](CCCNC(=N)N)NC(=O)[C@H](CCCNC(=N)N)NC(=O)CNC(=O)[C@H](CC(N)=O)NC(=O)[C@H](CC(N)=O)NC1=O [SyRC-5] (H-CRVRIDINNGRRRLKLQLQC-OH; disulfide 1-20)					>256
CC[C@H](C)[C@@H]1NC(=O)[C@H]([C@@H](C)O)NC(=O)[C@H](C(C)C)NC(=O)[C@@H](N)CSSC[C@@H](C(=O)O)NC(=O)[C@H](C(C)C)NC(=O)[C@H](CCC(=O)O)NC(=O)[C@H](C(C)C)NC(=O)[C@H]([C@@H](C)O)NC(=O)[C@H](C(C)C)NC(=O)[C@H](CCCCN)NC(=O)[C@H](C(C)C)NC(=O)CNC(=O)CNC(=O)[C@H](CCCNC(=N)N)NC(=O)CNC(=O)[C@H](CC(N)=O)NC(=O)[C@H](CC(=O)O)NC(=O)[C@H](C(C)C)NC(=O)[C@H](CCCNC(=N)N)NC1=O [SyRA-8] (H-CVTIRVDNGRGGVKVTVEVC-OH; disulfide 1-20)					>256
CC[C@H](C)[C@@H]1NC(=O)[C@H](CCCCN)NC(=O)[C@H](C(C)C)NC(=O)[C@H](CCCNC(=N)N)NC(=O)[C@H](CO)NC(=O)[C@H](CCCNC(=N)N)NC(=O)[C@H](CCCNC(=N)N)NC(=O)[C@H](CC(N)=O)NC(=O)[C@H](CC(=O)O)NC(=O)[C@H](C(C)C)NC(=O)[C@H](CCCNC(=N)N)NC(=O)[C@H]([C@@H](C)CC)NC(=O)[C@H]([C@@H](C)O)NC(=O)[C@H](CC(C)C)NC(=O)[C@@H](N)CSSC[C@@H](C(=O)O)NC(=O)[C@H](C(C)C)NC(=O)[C@H](CCC(=O)O)NC(=O)[C@H](CC(C)C)NC(=O)[C@H]([C@@H](C)O)NC1=O [SyRA-4] (H-CLTIRVDNRRSRVKITLEVC-OH; disulfide 1-20)					>256
CC[C@H](C)[C@@H]1NC(=O)[C@H]([C@@H](C)O)NC(=O)[C@H](C(C)C)NC(=O)[C@@H](N)CSSC[C@@H](C(=O)O)NC(=O)[C@H](C(C)C)NC(=O)[C@H](CCC(N)=O)NC(=O)[C@H](C(C)C)NC(=O)[C@H]([C@@H](C)O)NC(=O)[C@H](C(C)C)NC(=O)[C@H](CCCNC(=N)N)NC(=O)[C@H](CC(C)C)NC(=O)CNC(=O)[C@H](CCCNC(=N)N)NC(=O)[C@H](CCCNC(=N)N)NC(=O)[C@H](CCCNC(=N)N)NC(=O)[C@H](CC(=O)O)NC(=O)[C@H](CC(=O)O)NC(=O)[C@H](CC(C)C)NC(=O)[C@H](CCCNC(=N)N)NC1=O [SyRA-9] (H-CVTIRLDDRRRGLRVTVQVC-OH; disulfide 1-20)					>256
CC[C@H](C)[C@@H]1NC(=O)[C@H](CCCNC(=N)N)NC(=O)[C@H](CC(C)C)NC(=O)[C@H](CCCNC(=N)N)NC(=O)[C@H](CO)NC(=O)[C@H](CCCNC(=N)N)NC(=O)[C@H](CCCNC(=N)N)NC(=O)[C@H](CC(=O)O)NC(=O)[C@H](CC(N)=O)NC(=O)[C@H](CC(C)C)NC(=O)[C@H](CCCNC(=N)N)NC(=O)[C@H](C(C)C)NC(=O)[C@H]([C@@H](C)O)NC(=O)[C@H](C(C)C)NC(=O)[C@@H](N)CSSC[C@@H](C(=O)O)NC(=O)[C@H](C(C)C)NC(=O)[C@H](CCC(=O)O)NC(=O)[C@H](CC(C)C)NC(=O)[C@H]([C@@H](C)O)NC1=O [SyRA-15] (H-CVTVRLNDRRSRLRITLEVC-OH; disulfide 1-20)					>256
CC[C@H](C)[C@@H]1NC(=O)[C@H](CCCNC(=N)N)NC(=O)[C@H](C(C)C)NC(=O)CNC(=O)[C@H](CO)NC(=O)CNC(=O)CNC(=O)[C@H](CC(=O)O)NC(=O)[C@H](CC(N)=O)NC(=O)[C@H](CC(C)C)NC(=O)[C@H](CCCNC(=N)N)NC(=O)[C@H](C(C)C)NC(=O)[C@H](CCCNC(=N)N)NC(=O)[C@H](C(C)C)NC(=O)[C@@H](N)CSSC[C@@H](C(=O)O)NC(=O)[C@H](C(C)C)NC(=O)[C@H](CCC(N)=O)NC(=O)[C@H](C(C)C)NC(=O)[C@H](CO)NC1=O [SyRA-6] (H-CVRVRLNDGGSGVRISVQVC-OH; disulfide 1-20)					>256
CC[C@H](C)[C@@H]1NC(=O)[C@H](CC(N)=O)NC(=O)[C@H]([C@@H](C)CC)NC(=O)[C@H](CCCCN)NC(=O)[C@H](C(C)C)NC(=O)[C@H](CCCNC(=N)N)NC(=O)[C@@H](N)CSSC[C@@H](C(=O)O)NC(=O)[C@H](CCC(=O)O)NC(=O)[C@H](C(C)C)NC(=O)[C@H](CCC(=O)O)NC(=O)[C@H](CC(C)C)NC(=O)[C@H](CCCNC(=N)N)NC(=O)[C@H](C(C)C)NC(=O)[C@H](CCCNC(=N)N)NC(=O)[C@H](CCCNC(=N)N)NC(=O)[C@H](CO)NC(=O)CNC(=O)[C@H](CC(N)=O)NC(=O)[C@H](CC(=O)O)NC1=O [SyRC-2] (H-CRVKINIDNGSRRVRLEVEC-OH; disulfide 1-20)					>256
